Data reported in patent US10441589B2, “Combinations and methods comprising a capsid assembly inhibitor” (Novira Therapeutics, Inc., priority 2016, dated 2019).
Where a name gives a salt, the structure may show the parent alone. Read-outs that look alike come from different tables or passages of the source. Marks after values point to notes of the source that are not given here.

How the values were obtained:
rtN236T HBV variant = assay: Antiviral activity in HepG2 cells transiently transfected with rtN236T HBV variant; format: cell-based, HBV genotype B; settings: EC50 fold change relative to mean wild-type EC50; mean ± SD
Experimental: (§1) In this example, the antiviral activity of Compound 1 was determined using HepG2 liver cells transiently transfected with plasmids expression replication-competent HBV DNA and quantitation of intracellular encapsidated HBV DNA. The antiviral activity of Compound 1 was measured against nucleoside inhibitor sensitive, wild-type HBV, as well as against HBV variants resistant to nucleoside analogs that contain defined amino acid changes in the coding sequence of the reverse transcriptase protein: rtL180M/M204V, rtN236T, rtA181V, rtA181V/N236T, and rtL180M/M204V/N236T.
(§2) Plasmid DNA constructs containing a 1.1×HBV genome under the control of a CMV promoter were previously cloned from serum of an HBV infected patient prior to LMV treatment (Genbank AY220698, Fudan University, China; SEQ ID NO:1, see Table 1) and after development of resistance to LMV (Genbank AY220697, Fudan University, China; SEQ ID NO:2, see Table 1) (Zhang J M et al. 2005. J Med Virol 77: 203-208). Genotyping analysis confirmed that both isolates belong to genotype B HBV, and that the isolate collected after the development of resistance to LMV contained two amino acid changes within the polymerase gene (L180M/M204V). The HBV variant was named rtL180M/M204V to indicate that the amino acid changes were present in the reverse transcriptase (rt) protein. Two additional plasmids were generated by introducing coding sequence changes resulting in the amino acid changes N236T and A181V in the HBV polymerase, respectively. The nucleotide changes were introduced into the wild type genotype B plasmid by site directed mutagenesis according to manufacturer recommendation (Agilent Technologies; Santa Clara, Calif.; Catalog#200519) using the following primers and their corresponding reverse complement sequence (nucleotide change underlined): 5′-CTTTGGGTATACATTTAACCCCTCACAAAAC-3′ (rtN236T; SEQ ID NO:3), 5′-GTCCGTTTCTCTTGGTTCAGTTTACTAGTG-3′ (rtA181V; SEQ ID NO:4). In two additional plasmid constructs, the rtN236T amino acid change was also added into the rtA181V and rtL180M/M204V plasmids to generate the rtA181V/N236T double mutant and rtL180M/M204V/N236T triple mutant HBV variants, respectively. […]
(§3) HepG2 cells were seeded in collagen coated 96-well plates (BIOCOAT™; Fisher Scientific, Catalog#354407) at a density of 20,000 cells/well and allowed to attach overnight at 37° C. and 5% CO2. […] Cells were incubated with compounds for three days, after which intracellular HBV DNA was extracted from cells and levels of secreted Gaussian luciferase was determined from the medium using the Gaussia Flash Luciferase assay kit (THERMO SCIENTIFIC™, Fisher Scientific, Catalog#16158). […]

[1] = test system: rtL180M/M204V HBV variant; assay: Antiviral activity in HepG2 cells transiently transfected with rtL180M/M204V HBV variant; format: cell-based, HBV genotype B; settings: for Fold Change rtL180M/M204V: EC50 fold change relative to mean wild-type EC50, mean ± SD
Experimental: as §1, §2, §3

wild type HBV = assay: Antiviral activity in HepG2 cells transiently transfected with wild-type HBV, intracellular encapsidated HBV DNA; format: cell-based, HBV genotype B; settings: Hepatitis B virus, 72 h, HepG2 transient transfection, 3 days, mean ± SD, at least three studies, read-out: WT EC50
Experimental: as §1, §2, §3

[2] = Cell viability of primary human hepatocytes (CellTiter-Glo, intracellular ATP); format: cell-based; settings: human, cryopreserved primary human hepatocytes
Experimental: (§4) Cryopreserved primary human hepatocytes from individual donors (primary hepatocyte IDs: HuM4038, HuM4055A, and HuM4059) were purchased from Triangle Research Labs (TRL; Research Triangle Park, N.C.). Cells were thawed using hepatocyte thawing medium (TRL, Catalog#MCHT50) according to manufacturers' recommendations. After centrifugation, cells were resuspended in supplemented hepatocyte plating medium (TRL, Catalog#MP250). Cells were plated in collagen Type I coated 96-well plates (Corning; Corning, N.Y.; Catalog#356407) at a density of 40,000 cells per well and maintained in humidified incubators at 37° C. and 5% CO2 overnight prior to addition of test compounds.
(§5) For each donor, three 96-well plates were set up to evaluate the effect of increasing concentrations of Compound 1 either alone or in combination with nucleoside analogs on hepatocyte cell viability. On each plate, cells were incubated with Compound 1 alone as duplicates, or Compound 1 in the presence of LMV, TFV, or ETV as triplicates. The effects of nucleoside analogs alone on hepatocyte cell viability were also determined in triplicates for each donor. Compound 1 was half-log serially diluted in DMSO (Sigma, Catalog #D2650) and added to primary human hepatocytes either alone or in combination with LMV (30 and 300 μM), TFV (30 μM), or ETV (30 μM). Single and combined drugs were added to primary human hepatocytes at a final DMSO (Sigma D2650) concentration of 0.5% across all concentrations. Cells were incubated with compounds for three days, after which medium was removed and fresh medium containing compounds was added and incubated for another three days. As a no compound control, primary human hepatocytes were treated with 0.5% DMSO, and these values were then used to define the 0% inhibition level. Background signal was determined as the mean value from wells containing only culture medium. Cell viability was monitored by using CellTiter-Glo cell viability reagent according to the manufacturer protocol (Promega; Madison, Wis.; G7573). Chemiluminescence signal proportional to the amount of cellular ATP was measured by using the Victor X4 plate reader (Perkin Elmer; Waltham, Mass.). The mean background signal from the medium only wells was subtracted from all other samples, and percent inhibition was calculated using equation E1 (as in Example 1): % inhibition=(DMSOave−Xi)/DMSOave×100% (E1):
(§6) where DMSOave is the mean signal calculated from the wells that were treated with 0.5% DMSO control (0% inhibition control) and X, is the signal measured from the individual wells. CC50 values were determined from the % inhibition data obtained at different compound concentrations by non-linear fitting using Graphpad Prism software and equation E3, in cases were % inhibition values exceeded 50% at the highest concentration tested. Y=Ymin+(Ymax−Yin)/(1+10^(LogCC50−X)×HillSlope) (E3):
(§7) where Y represents percent inhibition values and X represents the logarithm of compound concentrations.

[3] = test system: primary human hepatocytes; assay: as above; format: cell-based; settings: 6 days; for cell viability at single concentrations: 30 or 300 μM LMV, 30 μM TFV, 30 μM ETV, three donors
Experimental: as §4, §5, §6, §7

[4] = test system: rtL180M/M204V/N236T HBV variant; assay: Antiviral activity in HepG2 cells transiently transfected with rtL180M/M204V/N236T HBV variant; format: cell-based, HBV genotype B; settings: EC50 fold change relative to mean wild-type EC50; mean ± SD
Experimental: as §1
(§8) Plasmid DNA constructs containing a 1.1×HBV genome under the control of a CMV promoter were previously cloned from serum of an HBV infected patient prior to LMV treatment (Genbank AY220698, Fudan University, China; SEQ ID NO:1, see Table 1) and after development of resistance to LMV (Genbank AY220697, Fudan University, China; SEQ ID NO:2, see Table 1) (Zhang J M et al. 2005. J Med Virol 77: 203-208). Genotyping analysis confirmed that both isolates belong to genotype B HBV, and that the isolate collected after the development of resistance to LMV contained two amino acid changes within the polymerase gene (L180M/M204V). The HBV variant was named rtL180M/M204V to indicate that the amino acid changes were present in the reverse transcriptase (rt) protein. Two additional plasmids were generated by introducing coding sequence changes resulting in the amino acid changes N236T and A181V in the HBV polymerase, respectively. […]
as §3

[5] = test system: HBV DNA replication in HepG2.2.15 cells; assay: 6-day HBV antiviral assay in HepG2.2.15 cells, qPCR of HBV DNA in supernatant, MacSynergy II; format: cell-based
Experimental: The anti-HBV activity of combinations of Compound 2 and Compound 3 with the nucleos(t)ide analogues ETV or TFV was assessed in a 6-day HBV antiviral assay using qPCR for the detection of HBV DNA in the cell culture supernatant as a read-out. The combination effect was analyzed using Mac Synergy II software. The anti-HBV activity of ETV and TFV when tested as single agents in HepG2.2.15 cells as well (Table 14).
During the antiviral testing, HepG2.2.15 cells were cultured in RPMI1640 medium and the FBS was reduced to 2%. Cells were plated at a density of 50.000 cells per well into a 96-well plate.
One day after seeding of the HepG2.2.15 cells, the supernatant was removed and 200 μL medium with test compounds, diluted in a checkerboard fashion, was added to the cells. […] HBV DNA was detected by quantitative real time PCR (qPCR). HBV DNA was quantified by a real-time PCR assay using a LightCycler480 Probes Master kit (Roche) with primers 5′-[sequence]-3′ (sense) and 5′-[sequence]-3′ (antisense, SEQ ID NO: 7). […]
The percentage inhibition values obtained for each combination of compound concentration was calculated as the average of 3 to 5 replicate plates of the same combination per experiment. To robustly identify outliers, the distance from the average of the other 4 replicates was calculated for every data point. […]

rtA181V HBV variant = assay: Antiviral activity in HepG2 cells transiently transfected with rtA181V HBV variant; format: cell-based, HBV genotype B; settings: for Fold Change rtA181V: EC50 fold change relative to mean wild-type EC50, mean ± SD
Experimental: as §1, §8, §3

[6] = test system: rtA181V/N236T HBV variant; assay: Antiviral activity in HepG2 cells transiently transfected with rtA181V/N236T HBV variant; format: cell-based, HBV genotype B; settings: EC50 fold change relative to mean wild-type EC50; mean ± SD
Experimental: as §1, with “rtL180M/M204V/N236T. […]” for “rtL180M/M204V/N236T.”
as §3

[7] = donor HuM4038, first HuM4038 column of Table 3, 6 days, read-out: HuM4038 CC50
[8] = donor HuM4038, second HuM4038 column of Table 3, 6 days, read-out: HuM4038 CC50
[9] = donor HuM4055A, 6 days, read-out: HuM4055A CC50
[10] = donor HuM4059, 6 days, read-out: HuM4059 CC50

| SMILES | Fold Change rtN236T (rtN236T HBV variant) | Fold Change rtL180M/M204V [1] | EC50 (wild type HBV) [µM] | CC50 at 6 days [2, 7] [µM] | CC50 at 6 days [2, 8] [µM] | CC50 at 6 days [2, 9] [µM] | CC50 at 6 days [2, 10] [µM] | cell viability at single concentrations [3] | Fold Change rtL180M/M204V/N236T [4] | Fold Change rtA181V (rtA181V HBV variant) | Fold Change rtA181V/N236T [6] | other results |
| --- | --- | --- | --- | --- | --- | --- | --- | --- | --- | --- | --- | --- |
| Nc1ccn([C@@H]2CS[C@H](CO)O2)c(=O)n1 [LMV, Lamivudine] | 1.0 ± 0.5^ns | >190 | 0.53 | > 30 | > 300 | > 300 | > 300 | No reduction of cell viability | >190 |  |  |  |
| C=C1[C@H](CO)[C@@H](O)C[C@@H]1n1cnc2c(=O)[nH]c(N)nc21 [ETV, entecavir] | 0.67 ± 0.22^ns |  | 0.0014 ± 0.0004 | > 30 | > 30 | > 30 | > 30 | No reduction of cell viability |  |  |  | EC50 ([5]; Hepatitis B virus, HepG2.2.15, read-out: Median EC50): 0.07 nM |
| CC(C)OC(=O)OCOP(=O)(CO[C@H](C)Cn1cnc2c(N)ncnc21)OCOC(=O)OC(C)C [TDF, tenofovir disoproxil fumarate] | 2.2 ± 1.0^b | 1.1 ± 0.3^ns | 0.032 |  |  |  |  |  | 2.9 ± 1.5^b | 1.4 ± 0.05^ns | 2.8 ± 1.4^b | EC50 (rtA181V HBV variant; Hepatitis B virus, HepG2, read-out: mean EC50 against rtA181V variant): 0.043 µM; EC50 ([1]; Hepatitis B virus, HepG2, read-out: mean EC50 against rtL180M/M204V variant): 0.034 µM |
| O=C(Nc1cc(F)c(F)c(F)c1)c1ccc(F)c(S(=O)(=O)N2CCC(O)CC2)c1 [Compound 1, 4-fluoro-3-((4-hydroxypiperidin-1-yl)sulfonyl)-N-(3,4,5,-trifluorophenyl)benzamide] | 0.85 ± 0.40^ns | 1.3 ± 0.6^ns | 0.31 ± 0.1 | 16 | 26 | 19 | 82 |  | 1.4 ± 0.5^ns | 0.82 ± 0.19^ns | 0.85 ± 0.26^ns | CC50 at 6 days ([2]; Table 4, alone, donor HuM4038, read-out: Cmpd (I) CC50): 26 µM; CC50 at 6 days ([2]; Table 4, alone, donor HuM4055A, read-out: Cmpd (I) CC50): 19 µM; CC50 at 6 days ([2]; Table 4, alone, donor HuM4059, read-out: Cmpd (I) CC50): 83 µM; CC50 at 6 days ([2]; Table 5, alone, donor HuM4038, read-out: Cmpd (I) CC50): 16 µM; CC50 at 6 days ([2]; Table 5, alone, donor HuM4055A, read-out: Cmpd (I) CC50): 19 µM; CC50 at 6 days ([2]; Table 5, alone, donor HuM4059, read-out: Cmpd (I) CC50): 83 µM; CC50 at 6 days ([2]; Table 6, alone, donor HuM4038, read-out: Cmpd (I) CC50): 16 µM; CC50 at 6 days ([2]; Table 6, alone, donor HuM4055A, read-out: Cmpd (I) CC50): 19 µM; CC50 at 6 days ([2]; Table 6, alone, donor HuM4059, read-out: Cmpd (I) CC50): 83 µM; CC50 at 6 days ([2]; range over three donors (HuM4038, HuM4055A, HuM4059), 6 days, read-out: CC50 values, range): 16 to 82 µM |
| C[C@H](Cn1cnc2c(N)ncnc21)OCP(=O)(O)O [TFV, tenofovir] |  |  |  |  |  |  |  | No reduction of cell viability |  |  |  | CC50 ([3]; donor HuM4038, first HuM4038 column of Table 3, read-out: HuM4038 CC50): > 30 µM; CC50 ([3]; donor HuM4038, second HuM4038 column of Table 3, read-out: HuM4038 CC50): > 30 µM; CC50 ([3]; donor HuM4055A, read-out: HuM4055A CC50): > 30 µM; CC50 ([3]; donor HuM4059, read-out: HuM4059 CC50): > 30 µM; EC50 ([5]; single agents in HepG2.2.15 cells, read-out: Median EC50): 15 nM |
